For two molecules, melting point results are on record in patent US8664409B2, “Process for the preparation of (poly) aminoalkylaminoacetamide derivatives of epipodophyllotoxin useful for their applications in therapeutics as anticancer agent” (Pierre Fabre Medicament, priority 2007, dated 2014).

Structures can show the parent of a compound that is named as a salt.

Broadly, the melting point is the temperature of the solid-liquid transition.

`COc1cc(C2c3cc4c(cc3[C@@H](NC(=O)CNCCCCNCCCCNCCCCN)[C@H]3COC(=O)C23)OCO4)cc(OC)c1O` (some centres unmarked) (as salt: hydrochloride) yielded a melting point of 263 °C.

`COc1cc(C2c3cc4c(cc3[C@@H](NC(=O)CNCCCCNCCCN)[C@H]3COC(=O)C23)OCO4)cc(OC)c1O` (some centres unmarked) (as salt: hydrochloride): the melting point was 197 °C.
